Laboratory results: patent publication US7405038B1, “Stable cell lines resistant to apoptosis and nutrient stress and methods of making same” (Boyce Thompson Institute for Plant Research, Inc., priority 2000, dated 2008)
Numbered stars: 1 amine (or outer) side, 2 acyl side, 3 side chain; on linkers, the order of the positions; unused ones are H or OH. Bridge positions count the residues as written; N and C are the ends. Square brackets hold non-standard residues; d marks the D form. Peptide text beside a SMILES is read from it. I, II: the chains in the order shown. Actinocin(9to1) = Cc1c2oc3c(C)ccc(C(=O)[*:1])c3nc-2c(C(=O)[*:2])c(N)c1=O; NMeV = CN[C@H](C(=O)O)C(C)C; Sar = CNCC(=O)O

Experiments:
Format in all cases: cell-based, Spodoptera frugiperda
[1] = system: Sf9P35AcV5-1 cells; assay: Resistance to induction of apoptosis by actinomycin D: cell survival
Procedure: (§1) The cells were examined for resistance to induction of apoptosis by actinomycin D, as well as survival under conditions of nutrient deprivation. Sf9 cells or stably transfected lines Sf9^P35AcV5−1 and Sf9^P35AcV5−3 were incubated in medium containing 0.1 μg/ml actinomycin D for 1 hour, then placed in TNMFH medium.
(§2) Increasing doses of actinomycin D were tested to further examine the degree of resistance to this inducer of apoptosis. Sf9 or stably transfected cells expressing P35 were incubated in a range of concentrations of actinomycin D (0.01 to 0.5 μg/ml) for one hour, then placed in TNMFH and scored for cell survival after 1-4 days (Table 2).

[2] = system: Sf9P35AcV5-3 cells; assay: as above
Procedure: as §1, §2

[3] = system: Sf9 cells; assay: DNA laddering on agarose gel after actinomycin D exposure; conditions: 0.1 μg/ml actinomycin D for one hour, 24 hours in fresh TNMFH
Procedure: (§3) To further examine resistance to apoptosis by P35 expressing cells, Sf9, Sf9^P35AcV5−1 and Sf9^P35AcV5−3 cells were plated at 2×10^6 cells/well in 6-well plates, then exposed to actinomycin D (0.1 μg/ml) for one hour, and incubated in fresh TNMFH medium at 27° C. for 24 hours. Cells were harvested and washed twice with PBS. Lysates were prepared by incubating cells in 200 μl lysis buffer (10 mM Tris pH 7.5, 25 mM EDTA, 0.2% Triton X-100) for one hour at room temperature. The lysate was extracted once with phenol, once with phenol:chloroform (1:1), twice with chloroform, and then precipitated in two volumes of ethanol. Cellular DNA was resuspended in 30 μl water containing RNAse A (50 μg/ml). 10 μl of DNA from each cell treatment was electrophoresed on a 1.2% agarose gel in TBE buffer (not shown).

[4] = system: Sf9P35AcV5-1 cells; assay: as above; conditions: 0.1 μg/ml actinomycin D for one hour, 24 hours in fresh TNMFH
Procedure: as §3

[5] = system: Sf9P35AcV5-3 cells; assay: as above; conditions: 0.1 μg/ml actinomycin D for one hour, 24 hours in fresh TNMFH
Procedure: as §3

[6] = system: surviving transfected Sf9 cells; assay: Actinomycin D selection of G418-selected transfected cells; conditions: 0.1 μg/ml actinomycin D for 1 hour, then fresh TNMFH; after three days
Procedure: In order to select cells expressing higher levels of functional P35, the surviving transfected cells were placed in medium containing 0.1 μg/ml actinomycin D for 1 hour. Another example of an inducer of apoptosis that could be used to select cells resistant to apoptosis is UV irradiation. In mammalian cells, inducers of apoptosis such as tumor necrosis factor (TNF) could also be used. The selection using an inducer of apoptosis could alternatively be performed without cotransfection with a selectable marker such as an antibiotic resistance gene.
At the end of the one hour incubation in actinomycin D, the medium was replaced with fresh TNMFH medium (containing no actinomycin D) and cells were allowed to grow for three days. After three days, 85-90% of the cells treated with actinomycin D-containing medium died. Medium was replaced after 3 days and surviving single cells formed small colonies which were subsequently propagated and used to clone individual cell lines by limiting dilution. For limiting dilution cloning, cells were diluted into 96 well plates such that each well received only one cell on average. Each well was subsequently monitored to ensure that only a single colony was present. Monoclonal cell lines were selected and propagated. Cell lines expressing the native P35 protein were named Sf9^P35, and lines expressing the epitope tagged P35 protein were named Sf9^P35AcV5. […]

[7] = 0.1 μg/ml actinomycin D for one hour, Day 2
[8] = 0.1 μg/ml actinomycin D for one hour, Day 3
[9] = 0.1 μg/ml actinomycin D for one hour, Day 4
[10] = 0.25 μg/ml actinomycin D for one hour, Day 1
[11] = 0.25 μg/ml actinomycin D for one hour, Day 2
[12] = 0.25 μg/ml actinomycin D for one hour, Day 3
[13] = 0.25 μg/ml actinomycin D for one hour, Day 4
[14] = 0.5 μg/ml actinomycin D for one hour, Day 1
[15] = 0.5 μg/ml actinomycin D for one hour, Day 2
[16] = 0.5 μg/ml actinomycin D for one hour, Day 3
[17] = 0.5 μg/ml actinomycin D for one hour, Day 4

In the case of `Cc1c2oc3c(C)ccc(C(=O)N[C@@H]4C(=O)N[C@H](C(C)C)C(=O)N5CCC[C@H]5C(=O)N(C)CC(=O)N(C)[C@@H](C(C)C)C(=O)O[C@@H]4C)c3nc-2c(C(=O)N[C@@H]2C(=O)N[C@H](C(C)C)C(=O)N3CCC[C@H]3C(=O)N(C)CC(=O)N(C)[C@@H](C(C)C)C(=O)O[C@@H]2C)c(N)c1=O` [Actinomycin D, actinomycin D] (I: T[dV]P[Sar][NMeV] / II: T[dV]P[Sar][NMeV]; ester I:1-I:C, II:1-II:C; linker I:N-II:N via Actinocin(9to1)), the “Sf9P35AcV5-1 Cell Survival (Percentage)” value [1, 7] is reported as 100 Percentage, the “Sf9P35AcV5-1 Cell Survival (Percentage)” value [1, 8] is reported as 100 Percentage and the “Sf9P35AcV5-1 Cell Survival (Percentage)” value [1, 9] is reported as 100 Percentage. For the same compound, the “survival of stably transfected line” value ([1]; 0.25 μg/ml actinomycin D) was 100%, the “Sf9P35AcV5-1 Cell Survival (Percentage)” value [1, 10] was 100 Percentage and the “Sf9P35AcV5-1 Cell Survival (Percentage)” value [1, 11] was 100 Percentage. For the same compound, the “Sf9P35AcV5-1 Cell Survival (Percentage)” value [1, 12] was 100 Percentage, the “Sf9P35AcV5-1 Cell Survival (Percentage)” value [1, 13] was 100 Percentage and the “survival of stably transfected line” value ([1]; 0.5 μg/ml actinomycin D) was ≤ 10%. For the same compound, the “Sf9P35AcV5-1 Cell Survival (Percentage)” value [1, 14] was 8.5 Percentage, the “Sf9P35AcV5-1 Cell Survival (Percentage)” value [1, 15] was 5.7 Percentage and the “Sf9P35AcV5-1 Cell Survival (Percentage)” value [1, 16] was 1.5 Percentage. For the same compound, the “Sf9P35AcV5-1 Cell Survival (Percentage)” value [1, 17] was 0 Percentage, the “resistance to actinomycin D as an inducer of apoptosis” value ([1]; relative to Sf9 cells) was ≥ 2 fold and the “Sf9P35AcV5-3 Cell Survival (Percentage)” value ([2]; 0.01 μg/ml actinomycin D for one hour, Day 1) was 100 Percentage. For the same compound, the “Sf9P35AcV5-3 Cell Survival (Percentage)” value ([2]; 0.01 μg/ml actinomycin D for one hour, Day 2) was 100 Percentage, the “Sf9P35AcV5-3 Cell Survival (Percentage)” value ([2]; 0.01 μg/ml actinomycin D for one hour, Day 3) was 100 Percentage and the “Sf9P35AcV5-3 Cell Survival (Percentage)” value ([2]; 0.01 μg/ml actinomycin D for one hour, Day 4) was 100 Percentage. The “Sf9P35AcV5-3 Cell Survival (Percentage)” value ([2]; 0.025 μg/ml actinomycin D for one hour, Day 1) was 100 Percentage, the “Sf9P35AcV5-3 Cell Survival (Percentage)” value ([2]; 0.025 μg/ml actinomycin D for one hour, Day 2) was 100 Percentage and the “Sf9P35AcV5-3 Cell Survival (Percentage)” value ([2]; 0.025 μg/ml actinomycin D for one hour, Day 3) was 100 Percentage. For the same compound, the “Sf9P35AcV5-3 Cell Survival (Percentage)” value ([2]; 0.025 μg/ml actinomycin D for one hour, Day 4) was 100 Percentage, the “Sf9P35AcV5-3 Cell Survival (Percentage)” value ([2]; 0.05 μg/ml actinomycin D for one hour, Day 1) was 100 Percentage and the “Sf9P35AcV5-3 Cell Survival (Percentage)” value ([2]; 0.05 μg/ml actinomycin D for one hour, Day 2) was 100 Percentage. The “Sf9P35AcV5-3 Cell Survival (Percentage)” value ([2]; 0.05 μg/ml actinomycin D for one hour, Day 3) was 100 Percentage, the “Sf9P35AcV5-3 Cell Survival (Percentage)” value ([2]; 0.05 μg/ml actinomycin D for one hour, Day 4) was 100 Percentage and the “Sf9P35AcV5-3 Cell Survival (Percentage)” value ([2]; 0.075 μg/ml actinomycin D for one hour, Day 1) was 100 Percentage. The “Sf9P35AcV5-3 Cell Survival (Percentage)” value ([2]; 0.075 μg/ml actinomycin D for one hour, Day 2) was 100 Percentage, the “Sf9P35AcV5-3 Cell Survival (Percentage)” value ([2]; 0.075 μg/ml actinomycin D for one hour, Day 3) was 100 Percentage and the “Sf9P35AcV5-3 Cell Survival (Percentage)” value ([2]; 0.075 μg/ml actinomycin D for one hour, Day 4) was 100 Percentage. For the same compound, the “survival of Sf9P35AcV5-3 cells” value ([2]; 0.1 μg/ml actinomycin D for 1 hour, then TNMFH medium, after three days) was “survived”, the “Sf9P35AcV5-3 Cell Survival (Percentage)” value ([2]; 0.1 μg/ml actinomycin D for one hour, Day 1) was 100 Percentage and the “Sf9P35AcV5-3 Cell Survival (Percentage)” value [2, 7] was 100 Percentage. The “Sf9P35AcV5-3 Cell Survival (Percentage)” value [2, 8] was 100 Percentage, the “Sf9P35AcV5-3 Cell Survival (Percentage)” value [2, 9] was 100 Percentage and the “survival of stably transfected line” value ([2]; 0.25 μg/ml actinomycin D) was 100%. The “Sf9P35AcV5-3 Cell Survival (Percentage)” value [2, 10] was 100 Percentage, the “Sf9P35AcV5-3 Cell Survival (Percentage)” value [2, 11] was 100 Percentage and the “Sf9P35AcV5-3 Cell Survival (Percentage)” value [2, 12] was 100 Percentage. The “Sf9P35AcV5-3 Cell Survival (Percentage)” value [2, 13] was 100 Percentage, the “survival of stably transfected line” value ([2]; 0.5 μg/ml actinomycin D) was ≤ 10% and the “Sf9P35AcV5-3 Cell Survival (Percentage)” value [2, 14] was 9.2 Percentage. For the same compound, the “Sf9P35AcV5-3 Cell Survival (Percentage)” value [2, 15] was 8.5 Percentage, the “Sf9P35AcV5-3 Cell Survival (Percentage)” value [2, 16] was 1.5 Percentage and the “Sf9P35AcV5-3 Cell Survival (Percentage)” value [2, 17] was 0 Percentage. For the same compound, the “resistance to actinomycin D as an inducer of apoptosis” value ([2]; relative to Sf9 cells) was ≥ 2 fold, the “DNA laddering / degradation on ethidium bromide stained gel” value (“DNA laddering / degradation” for short) [3] was “DNA laddering effect typical of apoptosis” and the “DNA laddering / degradation” value [4] was “little or no laddering or degradation”. The “DNA laddering / degradation” value [5] was “little or no laddering or degradation” and the “cells treated with actinomycin D-containing medium that died” value [6] was 85-90%.
